Laboratory results: PubChem BioAssay AID1963832 (Molecular Pharmacology Branch, DTP, NCI, 2024)

Tested on: 885724-159-R-J1-PDC complex spheroid viability
Assay: Anticancer human tumor 885724-159-R-J1-PDC patient-derived pancreatic adenocarcinoma cell line growth inhibition [POLQ]
Settings: for IC50: curve of first compound; for viability, T/C: stronger effect = lower value
In short: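 Growth inhibition in 3D: complex spheroids (tumor PDC, HUVEC, MSC) treated with POLQ inhibitor combinations; where Cmax unknown, highest tested concentration 10 microM, except SN-38 at 1 microM.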

[1] = second compound 0.0316 µM, first compound 0.0316 µM
[2] = second compound 0.0316 µM, first compound 0.1 µM
[3] = second compound 0.0316 µM, first compound 0.316 µM
[4] = second compound 0.0316 µM, first compound 1 µM
[5] = second compound 0.0316 µM, first compound 3.16 µM
[6] = second compound 0.0316 µM, first compound 10 µM
[7] = second compound 0.1 µM, first compound 0.0316 µM
[8] = second compound 0.1 µM, first compound 0.1 µM
[9] = second compound 0.1 µM, first compound 0.316 µM
[10] = second compound 0.1 µM, first compound 1 µM
[11] = second compound 0.1 µM, first compound 3.16 µM
[12] = second compound 0.1 µM, first compound 10 µM
[13] = second compound 0.316 µM, first compound 0.0316 µM
[14] = second compound 0.316 µM, first compound 0.1 µM
[15] = second compound 0.316 µM, first compound 0.316 µM
[16] = second compound 0.316 µM, first compound 1 µM
[17] = second compound 0.316 µM, first compound 3.16 µM
[18] = second compound 0.316 µM, first compound 10 µM
[19] = second compound 1 µM, first compound 0.0316 µM
[20] = second compound 1 µM, first compound 0.1 µM
[21] = second compound 1 µM, first compound 0.316 µM
[22] = second compound 1 µM, first compound 1 µM
[23] = second compound 1 µM, first compound 3.16 µM
[24] = second compound 1 µM, first compound 10 µM
[25] = second compound 3.16 µM, first compound 0.0316 µM
[26] = second compound 3.16 µM, first compound 0.1 µM
[27] = second compound 3.16 µM, first compound 0.316 µM
[28] = second compound 3.16 µM, first compound 1 µM
[29] = second compound 3.16 µM, first compound 3.16 µM
[30] = second compound 3.16 µM, first compound 10 µM
[31] = second compound 10 µM, first compound 0.0316 µM
[32] = second compound 10 µM, first compound 0.1 µM
[33] = second compound 10 µM, first compound 0.316 µM
[34] = second compound 10 µM, first compound 1 µM
[35] = second compound 10 µM, first compound 3.16 µM
[36] = second compound 10 µM, first compound 10 µM
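Also: spheroids exposed to compounds for 7 days.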

Q: Which results are given for `CC(C)n1c(=O)n(C)c2cnc3cc(F)c(-c4ccc(OCCCN5CCCCC5)nc4)cc3c21` + Nc1ccc(C#CCN(C(=O)Cc2ncc(C(F)(F)F)cc2C(F)(F)F)c2ccc(F)cc2)nn1?
A: IC50 (second compound 0.0316 µM): > 10 µM; IC50 (second compound 0.1 µM): > 10 µM; IC50 (second compound 0.316 µM): > 10 µM; IC50 (second compound 1 µM): > 10 µM; IC50 (second compound 3.16 µM): > 10 µM; IC50 (second compound 10 µM): > 10 µM; viability, T/C [1]: 103%; viability, T/C [2]: 103%; viability, T/C [3]: 101%; viability, T/C [4]: 98.2%; viability, T/C [5]: 85.3%; viability, T/C [6]: 81.5%; viability, T/C [7]: 104%; viability, T/C [8]: 94.9%; viability, T/C [9]: 98%; viability, T/C [10]: 98.9%; viability, T/C [11]: 98.9%; viability, T/C [12]: 93.7%; viability, T/C [13]: 104%; viability, T/C [14]: 102%; viability, T/C [15]: 96.3%; viability, T/C [16]: 94.5%; viability, T/C [17]: 94%; viability, T/C [18]: 87.7%; viability, T/C [19]: 111%; viability, T/C [20]: 104%; viability, T/C [21]: 96.8%; viability, T/C [22]: 97.8%; viability, T/C [23]: 97%; viability, T/C [24]: 84.9%; viability, T/C [25]: 98.4%; viability, T/C [26]: 104%; viability, T/C [27]: 98.1%; viability, T/C [28]: 101%; viability, T/C [29]: 90%; viability, T/C [30]: 92.1%; viability, T/C [31]: 106%; viability, T/C [32]: 97.4%; viability, T/C [33]: 108%; viability, T/C [34]: 103%; viability, T/C [35]: 90.7%; viability, T/C [36]: 73.7%

Q: With `CC1COCCN1c1cc(-c2ccnn2C)c2ccnc(-c3ccn[nH]3)c2n1` (stereo unspecified) + Nc1ccc(C#CCN(C(=O)Cc2ncc(C(F)(F)F)cc2C(F)(F)F)c2ccc(F)cc2)nn1 as the molecule, how does the IC50 (second compound 0.0316 µM) read?
A: 0.298 µM

Q: What about the IC50 (second compound 0.1 µM) of the same molecule?
A: 0.275 µM

Q: And the IC50 (second compound 0.316 µM)?
A: 0.267 µM

Q: And the IC50 (second compound 1 µM)?
A: 0.178 µM

Q: What about the IC50 (second compound 3.16 µM) of the same molecule?
A: 0.275 µM

Q: What about the IC50 (second compound 10 µM) of the same molecule?
A: 0.458 µM

Q: And the viability, T/C [1]?
A: 95.7%

Q: What about the viability, T/C [2] of the same molecule?
A: 60.6%

Q: And the viability, T/C [3]?
A: 51%

Q: And the viability, T/C [4]?
A: 43.9%

Q: And the viability, T/C [5]?
A: 47.7%

Q: And the viability, T/C [6]?
A: 44.4%

Q: And the viability, T/C [7]?
A: 108%

Q: What about the viability, T/C [8] of the same molecule?
A: 60.8%

Q: What about the viability, T/C [9] of the same molecule?
A: 49.6%

Q: What about the viability, T/C [10] of the same molecule?
A: 48.1%

Q: And the viability, T/C [11]?
A: 42.7%

Q: And the viability, T/C [12]?
A: 39.5%

Q: And the viability, T/C [13]?
A: 96.1%

Q: And the viability, T/C [14]?
A: 58.4%

Q: What about the viability, T/C [15] of the same molecule?
A: 49.7%

Q: And the viability, T/C [16]?
A: 47.5%

Q: What about the viability, T/C [17] of the same molecule?
A: 46.4%

Q: And the viability, T/C [18]?
A: 39.1%

Q: And the viability, T/C [19]?
A: 90%

Q: What about the viability, T/C [20] of the same molecule?
A: 52.3%

Q: What about the viability, T/C [21] of the same molecule?
A: 49%

Q: And the viability, T/C [22]?
A: 47.5%

Q: What about the viability, T/C [23] of the same molecule?
A: 49.9%

Q: And the viability, T/C [24]?
A: 38.4%

Q: What about the viability, T/C [25] of the same molecule?
A: 95.9%

Q: What about the viability, T/C [26] of the same molecule?
A: 61.5%

Q: What about the viability, T/C [27] of the same molecule?
A: 48.4%

Q: And the viability, T/C [28]?
A: 45.2%

Q: And the viability, T/C [29]?
A: 43.4%

Q: What about the viability, T/C [30] of the same molecule?
A: 43.8%

Q: And the viability, T/C [31]?
A: 106%

Q: And the viability, T/C [32]?
A: 64%

Q: What about the viability, T/C [33] of the same molecule?
A: 52.4%

Q: What about the viability, T/C [34] of the same molecule?
A: 49.3%

Q: What about the viability, T/C [35] of the same molecule?
A: 46.6%

Q: What about the viability, T/C [36] of the same molecule?
A: 42.5%

Q: Which IC50 (second compound 0.0316 µM) does the source give for `CC1COCCN1c1cc(C2(S(C)(=N)=O)CC2)nc(-c2ccnc3[nH]ccc23)n1` (stereo unspecified) + Nc1ccc(C#CCN(C(=O)Cc2ncc(C(F)(F)F)cc2C(F)(F)F)c2ccc(F)cc2)nn1 here?
A: > 10 µM

Q: What about the IC50 (second compound 0.1 µM) of the same molecule?
A: 7.07 µM

Q: And the IC50 (second compound 0.316 µM)?
A: > 10 µM

Q: What about the IC50 (second compound 1 µM) of the same molecule?
A: 6.07 µM

Q: And the IC50 (second compound 3.16 µM)?
A: 8 µM

Q: And the IC50 (second compound 10 µM)?
A: > 10 µM

Q: And the viability, T/C [1]?
A: 87.3%

Q: And the viability, T/C [2]?
A: 89.6%

Q: And the viability, T/C [3]?
A: 90.4%

Q: What about the viability, T/C [4] of the same molecule?
A: 75.9%

Q: What about the viability, T/C [5] of the same molecule?
A: 55.7%

Q: And the viability, T/C [6]?
A: 50%

Q: And the viability, T/C [7]?
A: 104%

Q: And the viability, T/C [8]?
A: 94.5%

Q: And the viability, T/C [9]?
A: 94%

Q: What about the viability, T/C [10] of the same molecule?
A: 71.5%

Q: What about the viability, T/C [11] of the same molecule?
A: 57.8%

Q: What about the viability, T/C [12] of the same molecule?
A: 46.7%

Q: What about the viability, T/C [13] of the same molecule?
A: 95.3%

Q: And the viability, T/C [14]?
A: 97.2%

Q: What about the viability, T/C [15] of the same molecule?
A: 83.4%

Q: What about the viability, T/C [16] of the same molecule?
A: 63.4%

Q: And the viability, T/C [17]?
A: 55.5%

Q: And the viability, T/C [18]?
A: 53.2%

Q: What about the viability, T/C [19] of the same molecule?
A: 95.3%

Q: And the viability, T/C [20]?
A: 85.1%

Q: What about the viability, T/C [21] of the same molecule?
A: 87.8%

Q: And the viability, T/C [22]?
A: 75.9%

Q: What about the viability, T/C [23] of the same molecule?
A: 55.8%

Q: And the viability, T/C [24]?
A: 45.4%

Q: What about the viability, T/C [25] of the same molecule?
A: 94.3%

Q: And the viability, T/C [26]?
A: 88.6%

Q: What about the viability, T/C [27] of the same molecule?
A: 91.1%

Q: And the viability, T/C [28]?
A: 69.9%

Q: And the viability, T/C [29]?
A: 53.5%

Q: And the viability, T/C [30]?
A: 48.4%

Q: What about the viability, T/C [31] of the same molecule?
A: 95.6%

Q: What about the viability, T/C [32] of the same molecule?
A: 99.7%

Q: And the viability, T/C [33]?
A: 94.7%

Q: And the viability, T/C [34]?
A: 64.1%

Q: And the viability, T/C [35]?
A: 57.8%

Q: What about the viability, T/C [36] of the same molecule?
A: 47%
